From US8673869B2, “Determinants of sensitivity to chemotherapeutic agents” (Western Sydney Local Health District, priority 2004, dated 2014)

Assays:
[1] = tested on: CHO-K1 cells and SC2 cells; assay: Carboplatin and oxaliplatin cell survival by modified MTS assay; assay type: cell-based, Chinese hamster; conditions: 2 hr drug exposure, 6 days incubation, FIG. 9
Method: FIG. 9. Effect of carboplatin (A) and oxaliplatin (B) on cell survival in CHO-K1 cells (diamonds) and SC2 cells (squares). Cell survival was measured by modified MTS assay. Results are expressed as a percentage of the vehicle-treated control, as a mean and standard error of triplicate wells from six independent experiments. Results were subjected to a paired t-test where * is p<0.05 and ** is p<0.005.
CHO-K1 and SC2 cells were each seeded into 24-well plates, incubated overnight then exposed to a range of concentrations of carboplatin or oxaliplatin for 2 hr. The drugs were removed, wells washed and the growth media replaced. Cells were incubated for 6 days and cell proliferation measured using a modified colorimetric MTS (3-(4,5-dimethylthiazol-2-yl)-5-(3-carboxy-methoxyphenyl)-2-(4-sulfophenyl)-2H-tetrazolium, inner salt) proliferation assay. MTS solution was added to each well and colour development measured on a plate reader at 490 nm.

CHO-K1 cells = assay: Cisplatin sensitivity by colony formation (clonogenic assay); assay type: cell-based, Chinese hamster; conditions: 10 uM cisplatin for 2 hr, colony formation over 6 days, percentage of vehicle-treated control
Method: (§1) FIG. 2. Cisplatin sensitivity of CHO cell lines. Parental CHO-K1 and the platinum-sensitive clone SC2 were exposed to a range of cisplatin (CDDP) concentrations for 2 hrs. The drug was then removed and the surviving cell fraction was determined by colony formation over 6 days. Colonies were fixed, stained with 0.1% crystal violet and counted. The results are expressed as a percentage of vehicle-treated control (mean and standard error from duplicate plates in at least three separate experiments) at differing cisplatin (CDDP) concentrations. The present inventors have used a novel approach to identify genes that determine sensitivity to platinum-based chemotherapeutic agents. This strategy utilized the mutant Chinese hamster ovary (CHO) cell line SC2 which is more sensitive to platinum than the parent CHO-K1 cell line. Parental CHO-K1 and mutant CHO cell lines were provided as a gift from Dr I Hickson and Dr C Robson (Imperial Cancer Research Fund, Oxford UK) (Robson, C, et al, 1985). The strategy adopted is outlined in FIG. 1. CHO-K1 cells were mutagenised with ethyl methane sulphonate (EMS). Mutants with altered sensitivity to cisplatin were isolated using replica plating. […] The drug was then removed and the surviving cell fraction was determined by colony formation over 6 days. Colonies were fixed, stained with 0.1% crystal violet and counted. […]

SC2 cells [2] = assay: as above; assay type: cell-based, Chinese hamster; conditions: 10 uM cisplatin for 2 hr, colony formation over 6 days, percentage of vehicle-treated control
Method: as §1

SC2 cells [3] = assay: Clonogenic survival of ANKRD1-transfected SC2 clones exposed to cisplatin; assay type: cell-based, Chinese hamster; conditions: SC2 clones transfected with rat ANKRD1 cDNA vs untransfected and vector control, 6 μM cisplatin, FIG. 5
Method: FIG. 5. […] Rat ANKRD1 cDNA was transfected into SC2 cells and transfected clones selected. ANKRD1-transfected clones were exposed to 6 μM cisplatin and the surviving fraction was measured by clonogenic assay. Survival in 4 transfected clones (SC2+ANKRD1) was compared with untransfected SC2 cells and empty vector-control transfected SC2 cells (SC2+vector).
To determine whether ANKRD1 has the ability to decrease sensitivity to cisplatin, rat ANKRD1 cDNA in the pcDNA3.1 expression vector, under the control of a CMV promoter, (a gift from the laboratory of Prof. L. Kedes, University of Southern California, USA) was transfected into the ANKRD1-deficient, platinum-sensitive SC2 mutant using Lipofectamine 2000 (Invitrogen Life Technologies, Carlsbad, Calif., USA). Transfected clones were selected and maintained in 400 μg/ml G-418 (Gibco-BRL).

[4] = tested on: human ovarian and breast cell lines; assay: Relative cisplatin sensitivity (IC37) by MTS proliferation assay; assay type: cell-based; conditions: 72 hr drug exposure, FIG. 7B
Method: FIG. 7. Expression of ANKRD1 in ovarian and breast cell lines. RNA was extracted from a range of normal and malignant ovarian and breast cell lines. ANKRD1 expression was measured by real-time PCR. A. Results are shown as relative mRNA levels, corrected for human P0 (acidic phosphoprotein P0; also known as 36B4, part of the 60S ribosomal RNA complex) and 18S rRNA. All cell lines are human. HOSE 17.1 and BRE-80 are normal ovarian and breast cell lines respectively; the remaining cell lines are malignant. B. Cisplatin (CDDP) sensitivity was determined for 13 of the cell lines. Survival was determined by MTS assay after exposing the cells to drug for 72 hr. The IC37 is shown for each cell line, results are the mean determined from between two and seven independent experiments. Asterix indicates IC37 not determined. C. Association between growth inhibition by cisplatin (IC37) and expression of ANKRD1 mRNA in 13 cell lines.
Relative cisplatin sensitivity was measured in 13 cell lines using a colorimetric proliferation assay. Cells were seeded into 96-well plates in a volume of 100 μl at 500 to 2000 cells per well. […] IC37 values were calculated for each cell line from survival curves, using data generated from between two to seven independent experiments.

ANKRD1 = ANKRD1 mRNA by real-time PCR in siRNA transfected CHO-K1 cells; assay type: cell-based, Chinese hamster; conditions: pools of stably transfected CHO-K1 cells, relative to parent CHO-K1, FIG. 6A
Method: FIG. 6. Increased sensitivity to cisplatin in CHO-K1 cells following reduction of ANKRD1 expression by siRNA. CHO-K1 were transfected with one of three inserts designed to knock-down ANKRD1 expression by targeting regions of the open reading frame encoding the N-terminus (siRNA41; SEQ ID NO: 5), the central portion (siRNA58; SEQ ID NO: 6) or the C-terminus (siRNA77; SEQ ID NO: 7). Pools (P1) of siRNA transfected cells were selected and maintained in hygromycin B. A. ANKRD1 mRNA was measured by real-time PCR. Results are shown as a percentage of the parent CHO-K1 ANKRD1 mRNA levels and corrected for rodent GAPDH (glyceraldehyde-3-phosphate dehydrogenase) and 18S rRNA. B. Cisplatin (CDDP) sensitivity in CHO-K1 and siRNA transfected cells was measured by clonogenic assay. The results are expressed as the mean and standard error of duplicate plates from at least three separate experiments.
To confirm that ANKRD1 was able to modulate platinum sensitivity, the converse hypothesis was tested, that decreasing ANKRD1 expression in the resistant, CHO-K1 cell line would increase sensitivity. Three 19 bp siRNA oligonucleotides were designed to regions encoding the N- and C-terminus as well as to a central portion of the coding region of the CHO ANKRD1 sequence. The sequences of the sense strands of these siRNA oligonucleotides are shown in SEQ ID NOs: 5 (siRNA41), 6 (siRNA58) and 7 (siRNA77). […]
To examine ANKRD1 mRNA expression, 100 ng of cDNA used as templates in real-time PCR using the ABI PRISM 7700 Sequence Detection System (PE Applied Biosystems). Samples were made up in a final volume of 25 μL with Platinum Quantitative PCR Supermix-UDG (Invitrogen) and 250 nM of each primer set. […] Relative concentrations of ANKRD1 and housekeeping genes were determined by comparison of Ct values to a standard curve produced using a sample containing cDNA produced from RNA of known concentration. […]

| Molecule | resistance of CHO-K1 cells compared to SC2 cells [1] | ANKRD1 expression (mRNA) (ANKRD1) | other results |
| --- | --- | --- | --- |
| N.N.O=C([O-])C1(C(=O)[O-])CCC1.[Pt+2] [carboplatin] | significantly more resistant | – | – |
| N.N.[Cl][Pt][Cl] [cisplatin] | – | – | cell survival (CHO-K1 cells): greater than 80%; cell survival (SC2 cells [2]): less than 2%; resistance to cisplatin after ANKRD1 transfection (SC2 cells [3]): increased resistance; relative cisplatin response (IC37) ([4]; COLO 316, T-47D and MCF-7 cell lines): among the most resistant; relative cisplatin response (IC37) ([4]; HOSE 17.1, A2780 and PEO1 cell lines): amongst the most sensitive |
| O=C1[O][Pt]2([NH][C@@H]3CCCC[C@H]3[NH]2)[O]C1=O [oxaliplatin] | significantly more resistant | – | – |
| siRNA41: 19 bp siRNA targeting the region of the ANKRD1 open reading frame encoding the N-terminus, expressed from pSilencer 2.1-U6 hygro vector (nucleic acid, the letters are possibly those of the target site, 19 bp siRNA targeting the region of the ANKRD1 open reading frame encoding the N-terminus, expressed from pSilencer 2.1-U6 hygro vector) GATCCCAGTTCCAGTTGTGAAGGAATTCAAGAGATTCCTTCACAACTGGAACTTTTTTTGGAAA | – | virtually ablated | – |
| siRNA77: 19 bp siRNA targeting the region of the ANKRD1 open reading frame encoding the C-terminus, expressed from pSilencer 2.1-U6 hygro vector (nucleic acid, the letters are possibly those of the target site, 19 bp siRNA targeting the region of the ANKRD1 open reading frame encoding the C-terminus, expressed from pSilencer 2.1-U6 hygro vector) GATCCCGTGGAACCAAAGCAATATTCTTCAAGAGAGAATATTGCTTTGGTTCCATTTTTTGGAAA | – | similarly reduced | – |
| siRNA58: 19 bp siRNA targeting the central portion of the ANKRD1 coding region, expressed from pSilencer 2.1-U6 hygro vector (nucleic acid, the letters are possibly those of the target site, 19 bp siRNA targeting the central portion of the ANKRD1 coding region, expressed from pSilencer 2.1-U6 hygro vector) GATCCCGTTCCGTGATATGCTTGAATTTCAAGAGAATTCAAGCATATCACGGAATTTTTTGGAA | – | similarly reduced | – |
